Like-named read-outs stand apart in the source and are kept apart here.
Target: plasmepsin II (Plasmodium falciparum, UniProt P46925)
Test: biochemical
Conditions: FRET, pH 5, 37° C., 40 min, substrate 1 μM, read-out: IC50 (nM) on plasmepsin II

Sequence of plasmepsin II (P46925 125-453): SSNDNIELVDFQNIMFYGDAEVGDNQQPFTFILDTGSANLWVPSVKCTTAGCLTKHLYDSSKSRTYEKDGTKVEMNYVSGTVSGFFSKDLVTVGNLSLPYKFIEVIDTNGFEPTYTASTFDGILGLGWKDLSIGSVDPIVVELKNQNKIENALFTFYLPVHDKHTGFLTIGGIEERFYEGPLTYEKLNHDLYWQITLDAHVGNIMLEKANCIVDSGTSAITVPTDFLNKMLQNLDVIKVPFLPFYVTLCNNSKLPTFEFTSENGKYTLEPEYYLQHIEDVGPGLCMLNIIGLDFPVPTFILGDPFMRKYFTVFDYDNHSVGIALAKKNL

Row | SMILES | IC50 (Additional Examples table) [nM] | IC50 ([…]) [nM]
1 | CCCCCc1ccc(C(=O)N(Cc2ccc(-c3ccccn3)cc2)C2CCN(CC3=CCCCC3)CC2)cc1 [Example 70, N-(1-Cyclohex-1-enylmethylpiperidin-4-yl)-4-pentyl-N-(4-pyridin-2-ylbenzyl)benzamide] | 125 | –
2 | CCCCCc1ccc(C(=O)N(Cc2ccc(-c3ccccc3)cc2)C2CCN(Cc3ccccc3O)CC2)cc1 [Example 99, N-Biphenyl-4-ylmethyl-N-[1-(2-hydroxybenzyl)piperidin-4-yl]-4-pentylbenzamide] | 361 | –
3 | CCCCCc1ccc(C(=O)N(Cc2ccc(-c3cccnc3)cc2)C2CCN(Cc3ccncc3)CC2)cc1 [Example 64, 4-Pentyl-N-(4-pyridin-3-yl-benzyl)-N-(1-pyridin-4-ylmethylpiperidin-4-yl)benzamide] | 102 | –
4 | CCCCCc1ccc(C(=O)N(Cc2ccc(-c3ccccc3)cc2)C2CCN(Cc3ccc(OC(F)(F)F)cc3)CC2)cc1 [Example 110, N-Biphenyl-4-ylmethyl-4-pentyl-N-[1-(4-trifluoromethoxybenzyl)piperidin-4-yl]benzamide] | 692 | –
5 | CCCCCCCCCCCC(=O)N(Cc1ccc(Oc2ccccc2)cc1)C1CCN(Cc2ccccc2)CC1 [Example 9] | – | 1700
6 | CCCCCc1ccc(C(=O)N(C2CCN(Cc3ccccc3)CC2)[C@H](CO)Cc2ccc(OCc3ccccc3)cc2)cc1 [Example 111, N-[(1S)-2-(4-Benzyloxyphenyl)-1-hydroxymethylethyl]-N-(1-benzyl-piperidin-4-yl)-4-pentylbenzamide] | 749 | –
7 | CCCCCc1ccc(C(=O)N(Cc2ccc(-c3ccccc3)cc2)C2CCN(Cc3cccnc3)CC2)cc1 [Example 65, N-Biphenyl-4-ylmethyl-4-pentyl-N-(1-pyridin-3-ylmethylpiperidin-4-yl)benzamide] | 103 | –
8 | CCCCCc1ccc(C(=O)N(Cc2ccc(CCCC)cc2)C2CCN(Cc3ccccc3)CC2)cc1 [Example 24] | – | 427
9 | CCCCCCCCCCCC(=O)N(Cc1ccc(OCc2ccccc2)c(OCc2ccccc2)c1)C1CCN(Cc2ccccc2)CC1 [Example 13] | – | 2400
10 | CCCCCc1ccc(CN(Cc2ccc(OCc3ccccc3)cc2)C2CCN(Cc3ccccc3)CC2)cc1 [Example 103, (4-Benzyloxybenzyl)-(1-benzyl-piperidin-4-yl)-(4-pentylbenzyl)amine] | 431 | –
11 | CCCCCc1ccc(C(=O)N(Cc2ccc(OCc3ccccc3)cc2O)C2CCN(Cc3ccccc3)CC2)cc1 [Example 92, N-(4-Benzyloxy-2-hydroxy-benzyl)-N-(1-benzylpiperidin-4-yl)-4-pentylbenzamide] | 281 | –
12 | CCCCCc1ccc(CN(C(=O)c2ccc(CCCCC)cc2)C2CCN(Cc3ccccc3)CC2)cc1 [Example 26] | – | 497
13 | CCCCCC(=Cc1ccccc1)CN(C(=O)c1ccc(CCCCC)cc1)C1CCN(Cc2ccccc2)CC1 [Example 117, N-(1-Benzylpiperidin-4-yl)-4-pentyl-N-(2-pentyl-3-phenylallyl)benzamide] | 933 | –
14 | CCCCCc1ccc(C(=O)N(Cc2ccc(-c3ccc(OC)c(OC)c3)cc2)C2CCN(Cc3ccccc3)CC2)cc1 [Example 48, N-(1-Benzylpiperidin-4-yl)-N-(3′,4′-dimethoxybiphenyl-4-ylmethyl)-4-pentylbenzamide] | 48 | –
15 | CCCCCC12CCC(C(=O)N(Cc3ccc(-c4ccccc4)cc3)C3CCN(Cc4ccccc4)CC3)(CC1)CC2 [Example 118, 4-Pentylbicyclo[2.2.2]octane-1-carboxylic acid(1-benzylpiperidin-4-yl)-biphenyl-4-ylmethylamide] | 942 | –
16 | CCCCCc1ccc(CN(Cc2ccc(OCc3ccc(F)cc3)cc2)C2CCN(Cc3ccccc3)CC2)cc1 [Example 102, (1-Benzylpiperidin-4-yl)-[4-(4-fluorobenzyloxy)benzyl]-(4-pentylbenzyl)amine] | 414 | –
17 | CCCCCc1ccc(C(=O)N(Cc2ccc(-c3ccc4c(c3)OCO4)cc2)C2CCN(CC3=CCCCC3)CC2)cc1 [Example 57, N-(4-Benzo[1,3]dioxol-5-yl-benzyl)-N-(1-cyclohex-1-enylmethyl-piperidin-4-yl)-4-pentyl-benzamide] | 75 | –
18 | CCCCCc1ccc(C(=O)N(Cc2ccc(-c3ccc(OC)c(OC)c3)cc2)C2CCN(Cc3ccncc3)CC2)cc1 [Example 41, N-(3′,4′-Dimethoxybiphenyl-4-ylmethyl)-4-pentyl-N-(1-pyridin-4-ylmethylpiperidin-4-yl)benzamide] | 25 | –
19 | CCCCCc1ccc(C(=O)N(Cc2ccc(-c3cccnc3)cc2)C2CCN(Cc3ccsc3)CC2)cc1 [Example 45, 4-Pentyl-N-(4-pyridin-3-yl-benzyl)-N-(1-thiophen-3-ylmethylpiperidin-4-yl)benzamide] | 42 | –
20 | CCCCCc1ccc(C(=O)N(Cc2ccc(-c3ccccc3Cl)cc2)C2CCN(Cc3ccccc3)CC2)cc1 [Example 68, N-(1-Benzylpiperidin-4-yl)-N-(2′-chlorobiphenyl-4-ylmethyl)-4-pentylbenzamide] | 120 | –
21 | CCCCOc1ccc(C(=O)N(Cc2ccc(OCc3ccccc3)cc2)C2CCN(Cc3ccccc3)CC2)cc1 [Example 3] | – | 1700

Row | SMILES | IC50 (Additional Examples table) [nM] | IC50 ([…]) [nM]
22 | CCCCCc1ccc(CN(Cc2ccc(-c3ccc(OCCO)cc3)cc2)C2CCN(Cc3ccccc3)CC2)cc1 [Example 33] | – | 96
23 | CCCCCc1ccc(C(=O)N(Cc2ccc3ccccc3c2)C2CCN(Cc3ccccc3)CC2)cc1 [Example 86, N-(1-Benzylpiperidin-4-yl)-N-naphthalen-2-ylmethyl-4-pentylbenzamide] | 248 | –
24 | CCCCCc1ccc(C(=O)N(Cc2ccc(-c3ccc(OC)c(OC)c3)cc2)C2CCN(CC3=CCCCC3)CC2)cc1 [Example 38, N-(1-Cyclohex-1-enylmethyl-piperidin-4-yl)-N-(3′,4′-dimethoxybiphenyl-4-ylmethyl)-4-pentylbenzamide] | 19 | –
25 | CCCCCc1ccc(C(=O)N(Cc2ccc(-c3ccccc3F)cc2)C2CCN(CC3=CCCCC3)CC2)cc1 [Example 69, N-(1-Cyclohex-1-enylmethylpiperidin-4-yl)-N-(2′-fluorobiphenyl-4-ylmethyl)-4-pentylbenzamide] | 123 | –
26 | CCCCCc1ccc(C(=O)N(Cc2ccc(OC)cc2)C2CCN(Cc3ccccc3)CC2)cc1 [Example 98, N-(1-Benzylpiperidin-4-yl)-N-(4-methoxybenzyl)-4-pentyl-benzamide] | 322 | –
27 | CCCCCc1ccc(C(=O)N(Cc2ccc3c(c2)OCO3)C2CCN(Cc3ccccc3)CC2)cc1 [Example 93, N-Benzo[1,3]dioxol-5-ylmethyl-N-(1-benzylpiperidin-4-yl)-4-pentyl-benzamide] | 284 | –
28 | CCCCCc1ccc(C(=O)N(Cc2ccc(-c3cccnc3)cc2)C2CCN(Cc3ccc(O)cc3)CC2)cc1 [N-[1-(4-Hydroxybenzyl)piperidin-4-yl]-4-pentyl-N-(4-pyridin-3-yl-benzyl)benzamide] | 105 | –
29 | CCCCCc1ccc(C(=O)N(Cc2ccc(-c3ccccn3)cc2)C2CCN(Cc3ccoc3)CC2)cc1 [Example 78, N-(1-Furan-3-ylmethylpiperidin-4-yl)-4-pentyl-N-(4-pyridin-2-yl-benzyl)benzamide] | 168 | –
30 | CCCCCc1ccc(C(=O)N(Cc2ccc(-c3cccnc3)cc2)C2CCN(CCC(C)C)CC2)cc1 [Example 39, N-[1-(3-Methylbutyl)piperidin-4-yl]-4-pentyl-N-(4-pyridin-3-yl-benzyl)benzamide] | 20 | –
31 | CCCCCc1ccc(CN(Cc2ccc(-c3ccccc3F)cc2)C2CCN(Cc3ccccc3)CC2)cc1 [Example 109, (1-Benzylpiperidin-4-yl)-(2′-fluoro-biphenyl-4-ylmethyl)-(4-pentyl-benzyl)amine] | 656 | –
32 | CCCCCc1ccc(CN(Cc2ccc(-c3cncnc3)cc2)C2CCN(Cc3ccccc3)CC2)cc1 [Example 107, (1-Benzylpiperidin-4-yl)-(4-pentyl-benzyl)-(4-pyrimidin-5-ylbenzyl)amine] | 618 | –
33 | CCCCCc1ccc(C(=O)N(Cc2ccc(C(F)(F)F)cc2)C2CCN(Cc3ccccc3)CC2)cc1 [Example 18] | – | 148
34 | CCCCCc1ccc(C(=O)N(Cc2ccc(-c3cccnc3)cc2)C2CCN(CC3=CCCCC3)CC2)cc1 [Example 61, N-(1-Cyclohex-1-enylmethyl-piperidin-4-yl)-4-pentyl-N-(4-pyridin-3-yl-benzyl)benzamide] | 89 | –
35 | CCCCCc1ccc(C(=O)N(Cc2ccc(-c3ccncc3)cc2)C2CCN(Cc3ccccc3)CC2)cc1 [Example 66, N-(1-Benzylpiperidin-4-yl)-4-pentyl-N-(4-pyridin-4-ylbenzyl)benzamide] | 104 | –
36 | CCCCCc1ccc(C(=O)N(Cc2ccc(OC(C)C)cc2)C2CCN(Cc3ccccc3)CC2)cc1 [Example 83, N-(1-Benzylpiperidin-4-yl)-N-(4-isopropoxybenzyl)-4-pentylbenzamide] | 204 | –
37 | CCCCCc1ccc(C(=O)N(Cc2ccc(-c3cccnc3)cc2)C2CCN(CC3CCCCC3)CC2)cc1 [Example 47, N-(1-Cyclohexylmethyl-piperidin-4-yl)-4-pentyl-N-(4-pyridin-3-yl-benzyl)benzamide] | 46 | –
38 | CCCCCc1ccc(C(=O)N(Cc2ccc(-c3ccc(N(C)C)cc3)cc2)C2CCN(Cc3ccccc3)CC2)cc1 [Example 106, N-(1-Benzylpiperidin-4-yl)-N-(4′-dimethylaminobiphenyl-4-ylmethyl)-4-pentylbenzamide] | 461 | –
39 | CCCCCc1ccc(C(=O)N(Cc2ccc(-c3ccc(C#N)cc3)cc2)C2CCN(Cc3cccnc3)CC2)cc1 [Example 55, N-(4′-Cyanobiphenyl-4-ylmethyl)-4-pentyl-N-(1-pyridin-3-ylmethylpiperidin-4-yl)benzamide] | 68 | –
40 | CCCCCc1ccc(C(=O)N(Cc2ccc(-c3ccc(F)cc3)cc2)C2CCN(Cc3ccccc3)CC2)cc1 [Example 89, N-(1-Benzylpiperidin-4-yl)-N-(4′-fluorobiphenyl-4-ylmethyl)-4-pentylbenzamide] | 260 | –
41 | CCCCCc1ccc(C(=O)N(Cc2ccc(OCc3ccccc3)cc2)C2CCN(Cc3ccccc3)CC2)cc1 [Example 1] | – | 70
42 | CCCCCc1ccc(C(=O)N(Cc2ccc(-c3ccc(OCCO)cc3)cc2)C2CCN(Cc3ccoc3)CC2)cc1 [Example 51, N-(1-Furan-3-ylmethypiperidin-4-yl)-N-[4′-(2-hydroxyethoxy)biphenyl-4-ylmethyl]-4-pentylbenzamide] | 57 | –
